According to PubChem BioAssay AID1918931 (Molecular Pharmacology Branch, DTP, NCI, 2023):

Test system: 138582-337-R-J1-PDC complex spheroid viability
Test: Anticancer human tumor 138582-337-R-J1-PDC patient-derived Merkel cell tumor cell line growth inhibition
Conditions: for IC50: curve of first compound; for viability, T/C: stronger effect = lower value; active means viability on the fitted dose curve at most 10% of control; inactive means the rest
How it was run: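 Multicellular complex spheroids of tumor cells with human endothelial cells (HUVEC) and mesenchymal stem cells; the LSD1 inhibitor iadademstat was combined with standard-of-care or investigational agents. Top concentration at or near clinical Cmax, half-log dilutions; final DMSO ≤0.25%.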

[1] = second compound 0.1 µM, first compound 0.0316 µM
[2] = second compound 0.1 µM, first compound 0.1 µM
[3] = second compound 0.1 µM, first compound 0.316 µM
[4] = second compound 0.1 µM, first compound 1 µM
[5] = second compound 0.316 µM, first compound 0.0316 µM
[6] = second compound 0.316 µM, first compound 0.1 µM
[7] = second compound 0.316 µM, first compound 0.316 µM
[8] = second compound 0.316 µM, first compound 1 µM
[9] = second compound 1 µM, first compound 0.0316 µM
[10] = second compound 1 µM, first compound 0.1 µM
[11] = second compound 1 µM, first compound 0.316 µM
[12] = second compound 1 µM, first compound 1 µM
[13] = second compound 3.16 µM, first compound 0.0316 µM
[14] = second compound 3.16 µM, first compound 0.1 µM
[15] = second compound 3.16 µM, first compound 0.316 µM
[16] = second compound 3.16 µM, first compound 1 µM
[17] = second compound 10 µM, first compound 0.0316 µM
[18] = second compound 10 µM, first compound 0.1 µM
[19] = second compound 10 µM, first compound 0.316 µM
[20] = second compound 10 µM, first compound 1 µM
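Further: spheroids exposed to agents for 7 days.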
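Wherever viability, T/C is given: 100% = DMSO vehicle control viability.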

COc1ccc([C@@H](O)c2cc(-c3ncnc4cc(N5CCOCC5)ccc34)c(F)cc2Cl)nn1 + NC1CC1c1ccc(-c2cccc(O)c2)cc1
inactive: viability, T/C [1] 73.2% | viability, T/C [2] 60.4% | viability, T/C [3] 57% | viability, T/C [4] 45.5% | viability, T/C (second compound 0.1 µM, first compound 3.16 µM) 38.2% | viability, T/C (second compound 0.1 µM, first compound 10 µM) 24.6% | viability, T/C [5] 67% | viability, T/C [6] 72.2% | viability, T/C [7] 66.1% | viability, T/C [8] 58.3% | viability, T/C (second compound 0.316 µM, first compound 3.16 µM) 49.2% | viability, T/C (second compound 0.316 µM, first compound 10 µM) 28.5% | viability, T/C [9] 77.2% | viability, T/C [10] 73.5% | viability, T/C [11] 61% | viability, T/C [12] 61.6% | viability, T/C (second compound 1 µM, first compound 3.16 µM) 44.7% | viability, T/C (second compound 1 µM, first compound 10 µM) 25.1% | viability, T/C [13] 68.3% | viability, T/C [14] 79.5% | viability, T/C [15] 65.4% | viability, T/C [16] 58.8% | viability, T/C (second compound 3.16 µM, first compound 3.16 µM) 46.4% | viability, T/C (second compound 3.16 µM, first compound 10 µM) 26% | viability, T/C [17] 99.8% | viability, T/C [18] 90.6% | viability, T/C [19] 77% | viability, T/C [20] 63.9% | viability, T/C (second compound 10 µM, first compound 3.16 µM) 48.1% | viability, T/C (second compound 10 µM, first compound 10 µM) 25.3%
2200 nM: IC50 (second compound 3.16 µM)
2690 nM: IC50 (second compound 0.316 µM)
2490 nM: IC50 (second compound 10 µM)
1980 nM: IC50 (second compound 1 µM)
620 nM: IC50 (second compound 0.1 µM)

Nc1ncn(C2CC(O)C(CO)S2)c(=O)n1 (stereo not given) + NC1CC1c1ccc(-c2cccc(O)c2)cc1
inactive: viability, T/C (second compound 0.1 µM, first compound 0.000949 µM) 79.6% | viability, T/C (second compound 0.1 µM, first compound 0.003 µM) 83.8% | viability, T/C (second compound 0.1 µM, first compound 0.00949 µM) 69.2% | viability, T/C (second compound 0.1 µM, first compound 0.03 µM) 73% | viability, T/C (second compound 0.1 µM, first compound 0.0949 µM) 77.1% | viability, T/C (second compound 0.1 µM, first compound 0.3 µM) 69.3% | viability, T/C (second compound 0.316 µM, first compound 0.000949 µM) 68.5% | viability, T/C (second compound 0.316 µM, first compound 0.003 µM) 80.1% | viability, T/C (second compound 0.316 µM, first compound 0.00949 µM) 77.9% | viability, T/C (second compound 0.316 µM, first compound 0.03 µM) 76.6% | viability, T/C (second compound 0.316 µM, first compound 0.0949 µM) 79.1% | viability, T/C (second compound 0.316 µM, first compound 0.3 µM) 78.3% | viability, T/C (second compound 1 µM, first compound 0.000949 µM) 71.8% | viability, T/C (second compound 1 µM, first compound 0.003 µM) 70.8% | viability, T/C (second compound 1 µM, first compound 0.00949 µM) 70.8% | viability, T/C (second compound 1 µM, first compound 0.03 µM) 68% | viability, T/C (second compound 1 µM, first compound 0.0949 µM) 76.6% | viability, T/C (second compound 1 µM, first compound 0.3 µM) 87.5% | viability, T/C (second compound 3.16 µM, first compound 0.000949 µM) 84.5% | viability, T/C (second compound 3.16 µM, first compound 0.003 µM) 78.9% | viability, T/C (second compound 3.16 µM, first compound 0.00949 µM) 84.9% | viability, T/C (second compound 3.16 µM, first compound 0.03 µM) 71.8% | viability, T/C (second compound 3.16 µM, first compound 0.0949 µM) 77.8% | viability, T/C (second compound 3.16 µM, first compound 0.3 µM) 68.9% | viability, T/C (second compound 10 µM, first compound 0.000949 µM) 74.3% | viability, T/C (second compound 10 µM, first compound 0.003 µM) 82% | viability, T/C (second compound 10 µM, first compound 0.00949 µM) 88.5% | viability, T/C (second compound 10 µM, first compound 0.03 µM) 89.7% | viability, T/C (second compound 10 µM, first compound 0.0949 µM) 93.4% | viability, T/C (second compound 10 µM, first compound 0.3 µM) 89.9%
> 300 nM: IC50 (second compound 0.1 µM) | IC50 (second compound 0.316 µM) | IC50 (second compound 1 µM) | IC50 (second compound 3.16 µM) | IC50 (second compound 10 µM)

O=C(C=Cn1cnc(-c2cc(C(F)(F)F)cc(C(F)(F)F)c2)n1)NNc1cnccn1 + NC1CC1c1ccc(-c2cccc(O)c2)cc1
inactive: viability, T/C (second compound 0.1 µM, first compound 0.00316 µM) 60.7% | viability, T/C (second compound 0.1 µM, first compound 0.01 µM) 53% | viability, T/C [1] 27.8% | viability, T/C [2] 17.4% | viability, T/C [3] 16.3% | viability, T/C [4] 15.7% | viability, T/C (second compound 0.316 µM, first compound 0.00316 µM) 56.7% | viability, T/C (second compound 0.316 µM, first compound 0.01 µM) 50.4% | viability, T/C [5] 28.1% | viability, T/C [6] 16.2% | viability, T/C [7] 17.3% | viability, T/C [8] 21% | viability, T/C (second compound 1 µM, first compound 0.00316 µM) 55.2% | viability, T/C (second compound 1 µM, first compound 0.01 µM) 44.8% | viability, T/C [9] 33.8% | viability, T/C [10] 21.1% | viability, T/C [11] 18.6% | viability, T/C [12] 23.8% | viability, T/C (second compound 3.16 µM, first compound 0.00316 µM) 55.2% | viability, T/C (second compound 3.16 µM, first compound 0.01 µM) 46% | viability, T/C [13] 29.3% | viability, T/C [14] 22.1% | viability, T/C [15] 22.6% | viability, T/C [16] 17.3% | viability, T/C (second compound 10 µM, first compound 0.00316 µM) 55.4% | viability, T/C (second compound 10 µM, first compound 0.01 µM) 53.1% | viability, T/C [17] 44.6% | viability, T/C [18] 35.1% | viability, T/C [19] 24.9% | viability, T/C [20] 32.2%
5.94 nM: IC50 (second compound 1 µM) | IC50 (second compound 3.16 µM)
15.8 nM: IC50 (second compound 10 µM)
11.5 nM: IC50 (second compound 0.1 µM)
10.4 nM: IC50 (second compound 0.316 µM)
